The source made the active and inactive calls. The rule behind the calls is not given here. Square brackets hold non-standard residues; d marks the D form. Peptide text beside a SMILES is read from it. * marks the point of attachment. Biotin = O=C1N[C@H]2[C@H](CS[C@H]2CCCCC(=O)*)N1; Ahx = NCCCCCC(=O)O
How the values were obtained:
HT-29 = assay: Cytotoxicity against human HT-29 cells; assay type: functional, cell-based
Tubulin = Tubulin (Sus scrofa, UniProt P02554+P02550); assay: Binding affinity to pig tubulin after 1 hr by fluorescence quenching analysis; assay type: protein assay
Tubulin (Sus scrofa) [1] = target: T1, Tubulin (Sus scrofa) (UniProt P02554+P02550); assay: Binding affinity to pig tubulin at 2 uM treated for 30 mins followed by photo-irradiation at 365 nm for 30 secs measured after 1 hr by Western blot analysis; assay type: protein assay
T1 sequence (P02550 whole entry, looked up): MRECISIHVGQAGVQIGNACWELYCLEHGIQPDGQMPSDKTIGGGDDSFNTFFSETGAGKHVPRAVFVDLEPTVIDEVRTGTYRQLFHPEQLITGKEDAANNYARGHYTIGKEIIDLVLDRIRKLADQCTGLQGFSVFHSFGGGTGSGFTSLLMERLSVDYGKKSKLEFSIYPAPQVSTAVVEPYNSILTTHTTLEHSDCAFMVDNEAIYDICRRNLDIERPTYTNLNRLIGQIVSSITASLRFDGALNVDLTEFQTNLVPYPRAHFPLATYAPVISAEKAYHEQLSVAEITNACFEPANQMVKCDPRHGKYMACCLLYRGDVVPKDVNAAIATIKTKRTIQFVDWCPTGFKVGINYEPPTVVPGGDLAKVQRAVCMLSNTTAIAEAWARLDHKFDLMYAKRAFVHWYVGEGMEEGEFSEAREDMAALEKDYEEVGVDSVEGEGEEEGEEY
T1 sequence (P02554 whole entry, looked up): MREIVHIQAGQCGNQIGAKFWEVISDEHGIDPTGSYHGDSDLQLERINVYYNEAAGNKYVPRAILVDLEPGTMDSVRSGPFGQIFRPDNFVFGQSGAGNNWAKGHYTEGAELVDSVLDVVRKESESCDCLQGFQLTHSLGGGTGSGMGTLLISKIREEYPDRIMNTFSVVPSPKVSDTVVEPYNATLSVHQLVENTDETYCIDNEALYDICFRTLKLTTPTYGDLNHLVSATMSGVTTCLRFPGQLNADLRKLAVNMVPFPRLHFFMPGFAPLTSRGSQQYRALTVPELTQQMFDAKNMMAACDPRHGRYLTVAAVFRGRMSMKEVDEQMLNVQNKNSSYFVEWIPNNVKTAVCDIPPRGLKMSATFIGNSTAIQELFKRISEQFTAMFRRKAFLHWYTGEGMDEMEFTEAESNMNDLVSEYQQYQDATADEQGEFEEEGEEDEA

Sus scrofa [2] = species: Sus scrofa; assay: Binding affinity to pig beta-tubulin at 2 uM treated for 30 mins followed by photo-irradiation at 365 nm for 30 secs measured after 1 hr by Western blot analysis
HT-1080 [3] = assay: Binding affinity to beta-tubulin in human HT1080 cells after overnight incubation by SDS-PAGE; assay type: cell-based
Tubulin (Sus scrofa) [4] = target: T1, Tubulin (Sus scrofa); assay: Binding affinity to pig tubulin assessed as irradiation-time-dependent labeling at 2 uM treated for 30 mins followed by photo-irradiation at 365 nm by CBB staining-based SDS-PAGE; assay type: protein assay; settings: TDE = time-dependent effect
Tubulin (Sus scrofa) [5] = target: T1, Tubulin (Sus scrofa); assay: Binding affinity to pig tubulin at 2 uM treated for 30 mins followed by photo-irradiation at 365 nm for 30 secs measured after 1 hr by Western blot analysis in presence of 5-100 equivalents of biotin; assay type: protein assay
Tubulin (Sus scrofa) [6] = target: T1, Tubulin (Sus scrofa); assay: Binding affinity to pig tubulin at 2 uM treated for 30 mins followed by photo-irradiation at 365 nm for 30 secs measured after 1 hr by Western blot analysis in presence of 100 equivalents of colchicine; assay type: protein assay
HT-1080 [7] = assay: Binding affinity to alpha-tubulin in human HT1080 cells after overnight incubation by SDS-PAGE; assay type: cell-based
Tubulin (Sus scrofa) [8] = target: T1, Tubulin (Sus scrofa); assay: Binding affinity to pig tubulin at 2 uM treated for 30 mins followed by photo-irradiation at 365 nm for 30 secs measured after 1 hr by Western blot analysis in presence of increasing concentration of plinabulin; assay type: protein assay
Sus scrofa [9] = species: Sus scrofa; assay: Binding affinity to pig alpha-tubulin at 2 uM treated for 30 mins followed by photo-irradiation at 365 nm for 30 secs measured after 1 hr by Western blot analysis
Tubulin (Sus scrofa) [10] = target: T1, Tubulin (Sus scrofa); assay: Binding affinity to pig tubulin at 2 uM treated for 30 mins followed by photo-irradiation at 365 nm for 30 secs measured after 1 hr by CBB staining-based SDS-PAGE; assay type: protein assay

Row | SMILES | IC50 (HT-29) [nM] | Kd (Tubulin) [nM] | Activity (HT-1080 [3]) | Activity (HT-1080 [7]) | further results
1 | CC(C)(C)c1ocnc1/C=c1\[nH]c(=O)/c(=C/c2cccc(C(=O)c3ccccc3)c2)[nH]c1=O | 4 |  |  |  | 
2 | CC(C)(C)c1ocnc1/C=c1\[nH]c(=O)/c(=C/c2cccc(C(=O)c3ccc(CNC(=O)CCCCCNC(=O)CCCCCNC(=O)CCCC[C@@H]4SC[C@@H]5NC(=O)N[C@@H]54)cc3)c2)[nH]c1=O (stereo in doubt) |  | 9740 |  |  | Activity (Tubulin (Sus scrofa) [1]): Active
3 | CC(C)(C)c1ocnc1/C=c1\[nH]c(=O)/c(=C/c2cccc(C(=O)c3ccc(CNC(=O)CCCCCNC(=O)CCCCCNC(=O)CCCCCNC(=O)CCCCCNC(=O)[C@H](CCCCN)NC(=O)[C@H](CCCCN)NC(=O)CCCCCNC(=O)CCCCCNC(=O)CCCC[C@@H]4SC[C@@H]5NC(=O)N[C@@H]54)cc3)c2)[nH]c1=O (stereo in doubt) |  | 25170 | Active | Active | Activity (Sus scrofa [2]): Active; Activity (Tubulin (Sus scrofa) [4]): tde; Activity (Tubulin (Sus scrofa) [5]): Active; Activity (Tubulin (Sus scrofa) [6]): inactive; Activity (Tubulin (Sus scrofa) [8]): inactive; Activity (Sus scrofa [9]): Active; Activity (Tubulin (Sus scrofa) [10]): Active
4 | NCCCC[C@H](NC(=O)CCCCCNC(=O)CCCCCNC(=O)CCCC[C@@H]1SC[C@@H]2NC(=O)N[C@@H]21)C(=O)N[C@@H](CCCCN)C(=O)NCCCCCC(=O)NCCCCCC(=O)NCCCCCC(=O)NCCCCCC(=O)O ({Biotin-Ahx-Ahx}-KK[Ahx][Ahx][Ahx][Ahx]-OH) |  |  | inactive | inactive | 
5 | CC(C)(C)c1[nH]cnc1/C=c1\[nH]c(=O)/c(=C/c2ccccc2)[nH]c1=O [PLINABULIN] | 15 | 1060 |  |  | 

From ChEMBL document CHEMBL1157782, “Anti-microtubule 'plinabulin' chemical probe KPU-244-B3 labeled both alpha- and beta-tubulin” (Bioorg Med Chem, 2010)
